Results taken from patent US6770596B1, “Fused tricyclic compounds, process for their preparation, and herbicidal compositions containing them” (Ishihara Sangyo Kaisha Ltd., priority 2002, dated 2004).

Assays:
Type in all cases: in vivo
[1] = system: barnyardgrass (Echinachloa crus-galli, ECC); assay: Pre-emerge test, barnyardgrass; settings: 250 g ai/ha, 14 days after application, rating scale 0-100 (0 no damage, 100 complete death)
Excerpt: (§1) A standard greenhouse herbicide activity screening system was used to evaluate the herbicidal efficacy and crop safety of these test compounds. Seven broadleaf weed species including redroot pigweed (Amaranthus retroflexus, AMR), velvetleaf (Abutilon theophrasti, ABT), sicklepod (Cassia obtusifolia, CAO), ivyleaf morningglory (Ipomoea hederacea, IPH), lambsquarters (Chenopodium album, CHA), common ragweed (Ambrosia artemisiifolia L., AML), and cocklebur (Xanthium strumariunt, XAS) were used as test species. Four grass weed species including green foxtail (Setaria viridis, SEV), barnyardgrass (Echinachloa crus-galli, ECC), johnsongrass (Sorghum halepense, SOH), and large crabgrass (Digitaria sanguinalis, DIS) were also used. In addition, four crop species, field corn (Zea mays L., var. Dekalb 535, CORN), soybean (Glycine max L., var. Pella 86, SOY), upland rice (Oryza sp., var.Tebonnet, RICE), and wheat (Triticum aestivum) were included all plants were grown in 10 cm square plastic pots which were filled with a sandy loam soil mix.
(§2) For pre-emerge tests, seeds were planted one day prior to application of the test compounds. All test compounds were dissolved in acetone and applied to the test pots in a volume of 187 l/ha. Test materials were applied at rates ranging from 8 g ai/ha to 1000 g ai/ha using a track sprayer equipped with a TJ8001E even flow flat fan spray nozzle. This application simulates a typical commercial field herbicide application.
(§3) At 14 days after application of the test materials, phytotoxicity ratings were recorded. A rating scale of 0-100 was used for both pre and post emerge tests as previously described in Research Methods in Weed Science, 2nd edition, B, Truelove, Ed., Southern Weed Science Society, Auburn University, Auburn, Ala., 1977. Briefly, “0” corresponds to no damage and “100” corresponds to complete death of all plants in the test unit. This scale was used both to determine efficacy against weed species and damage to crop species. Herbicide activity data for various compounds of this invention, which are shown by compound No. in Tables 1-3, are shown in Tables 5 and 6.

[2] = system: green foxtail (Setaria viridis, SEV); assay: Pre-emerge test, green foxtail; settings: 250 g ai/ha, 14 days after application, rating scale 0-100 (0 no damage, 100 complete death)
Excerpt: as §1, §2, §3

[3] = system: velvetleaf (Abutilon theophrasti, ABT); assay: Pre-emerge test, velvetleaf; settings: 250 g ai/ha, 14 days after application, rating scale 0-100 (0 no damage, 100 complete death)
Excerpt: as §1, §2, §3

[4] = system: soybean (Glycine max L., var. Pella 86, SOY); assay: Post-emerge test, crop damage soybean; settings: post-emerge, 250 g ai/ha, 14 days after application, rating scale 0-100 (0 no damage, 100 complete death)
Excerpt: as §1, §2
(§4) For post-emerge tests, seeds were planted 8-21 days prior to the test to allow emergence and good foliage development prior to application of the test substances. At the time of the post-emerge application, plants of all species were usually at the 2-3 leaf stage of development. In the postemerge test, a commercial non-ionic surfactant was also included (0.25% v/v) to enhance wetting of the leaf surfaces of target plants.
as §3

[5] = system: common ragweed (Ambrosia artemisiifolia L., AML); assay: Pre-emerge test, common ragweed; settings: 250 g ai/ha, 14 days after application, rating scale 0-100 (0 no damage, 100 complete death)
Excerpt: as §1, §2, §3

[6] = system: common ragweed (Ambrosia artemisiifolia L., AML); assay: Post-emerge test, common ragweed; settings: 250 g ai/ha, 14 days after application, rating scale 0-100 (0 no damage, 100 complete death)
Excerpt: as §1, §2, §4, §3

[7] = system: wheat (Triticum aestivum); assay: Post-emerge test, crop damage wheat; settings: post-emerge, 250 g ai/ha, 14 days after application, rating scale 0-100 (0 no damage, 100 complete death)
Excerpt: as §1, §2, §4, §3

[8] = system: ivyleaf morningglory (Ipomoea hederacea, IPH); assay: Post-emerge test, ivyleaf morningglory; settings: 250 g ai/ha, 14 days after application, rating scale 0-100 (0 no damage, 100 complete death)
Excerpt: as §1, §2, §4, §3

[9] = system: lambsquarters (Chenopodium album, CHA); assay: Pre-emerge test, lambsquarters; settings: 250 g ai/ha, 14 days after application, rating scale 0-100 (0 no damage, 100 complete death)
Excerpt: as §1, §2, §3

[10] = system: barnyardgrass (Echinachloa crus-galli, ECC); assay: Post-emerge test, barnyardgrass; settings: 250 g ai/ha, 14 days after application, rating scale 0-100 (0 no damage, 100 complete death)
Excerpt: as §1, §2, §4, §3

[11] = system: cocklebur (Xanthium strumariunt, XAS); assay: Pre-emerge test, cocklebur; settings: 250 g ai/ha, 14 days after application, rating scale 0-100 (0 no damage, 100 complete death)
Excerpt: as §1, §2, §3

[12] = system: upland rice (Oryza sp., var.Tebonnet, RICE); assay: Post-emerge test, crop damage upland rice; settings: post-emerge, 250 g ai/ha, 14 days after application, rating scale 0-100 (0 no damage, 100 complete death)
Excerpt: as §1, §2, §4, §3

[13] = system: velvetleaf (Abutilon theophrasti, ABT); assay: Post-emerge test, velvetleaf; settings: 250 g ai/ha, 14 days after application, rating scale 0-100 (0 no damage, 100 complete death)
Excerpt: as §1, §2, §4, §3

[14] = system: cocklebur (Xanthium strumariunt, XAS); assay: Post-emerge test, cocklebur; settings: 250 g ai/ha, 14 days after application, rating scale 0-100 (0 no damage, 100 complete death)
Excerpt: as §1, §2, §4, §3

[15] = system: field corn (Zea mays L., var. Dekalb 535, CORN); assay: Pre-emerge test, crop damage field corn; settings: pre-emerge, 250 g ai/ha, 14 days after application, rating scale 0-100 (0 no damage, 100 complete death)
Excerpt: as §1, §2, §3

[16] = system: johnsongrass (Sorghum halepense, SOH); assay: Post-emerge test, johnsongrass; settings: 250 g ai/ha, 14 days after application, rating scale 0-100 (0 no damage, 100 complete death)
Excerpt: as §1, §2, §4, §3

[17] = system: large crabgrass (Digitaria sanguinalis, DIS); assay: Post-emerge test, large crabgrass; settings: 250 g ai/ha, 14 days after application, rating scale 0-100 (0 no damage, 100 complete death)
Excerpt: as §1, §2, §4, §3

[18] = system: green foxtail (Setaria viridis, SEV); assay: Post-emerge test, green foxtail; settings: 250 g ai/ha, 14 days after application, rating scale 0-100 (0 no damage, 100 complete death)
Excerpt: as §1, §2, §4, §3

[19] = system: lambsquarters (Chenopodium album, CHA); assay: Post-emerge test, lambsquarters; settings: 250 g ai/ha, 14 days after application, rating scale 0-100 (0 no damage, 100 complete death)
Excerpt: as §1, §2, §4, §3

[20] = system: redroot pigweed (Amaranthus retroflexus, AMR); assay: Pre-emerge test, redroot pigweed; settings: 250 g ai/ha, 14 days after application, rating scale 0-100 (0 no damage, 100 complete death)
Excerpt: as §1, §2, §3

[21] = system: ivyleaf morningglory (Ipomoea hederacea, IPH); assay: Pre-emerge test, ivyleaf morningglory; settings: 250 g ai/ha, 14 days after application, rating scale 0-100 (0 no damage, 100 complete death)
Excerpt: as §1, §2, §3

[22] = system: sicklepod (Cassia obtusifolia, CAO); assay: Post-emerge test, sicklepod; settings: 250 g ai/ha, 14 days after application, rating scale 0-100 (0 no damage, 100 complete death)
Excerpt: as §1, §2, §4, §3

[23] = system: field corn (Zea mays L., var. Dekalb 535, CORN); assay: Post-emerge test, crop damage field corn; settings: post-emerge, 250 g ai/ha, 14 days after application, rating scale 0-100 (0 no damage, 100 complete death)
Excerpt: as §1, §2, §4, §3

[24] = system: large crabgrass (Digitaria sanguinalis, DIS); assay: Pre-emerge test, large crabgrass; settings: 250 g ai/ha, 14 days after application, rating scale 0-100 (0 no damage, 100 complete death)
Excerpt: as §1, §2, §3

[25] = system: sicklepod (Cassia obtusifolia, CAO); assay: Pre-emerge test, sicklepod; settings: 250 g ai/ha, 14 days after application, rating scale 0-100 (0 no damage, 100 complete death)
Excerpt: as §1, §2, §3

[26] = system: johnsongrass (Sorghum halepense, SOH); assay: Pre-emerge test, johnsongrass; settings: 250 g ai/ha, 14 days after application, rating scale 0-100 (0 no damage, 100 complete death)
Excerpt: as §1, §2, §3

[27] = system: upland rice (Oryza sp., var.Tebonnet, RICE); assay: Pre-emerge test, crop damage upland rice; settings: pre-emerge, 250 g ai/ha, 14 days after application, rating scale 0-100 (0 no damage, 100 complete death)
Excerpt: as §1, §2, §3

[28] = system: soybean (Glycine max L., var. Pella 86, SOY); assay: Pre-emerge test, crop damage soybean; settings: pre-emerge, 250 g ai/ha, 14 days after application, rating scale 0-100 (0 no damage, 100 complete death)
Excerpt: as §1, §2, §3

[29] = system: redroot pigweed (Amaranthus retroflexus, AMR); assay: Post-emerge test, redroot pigweed; settings: 250 g ai/ha, 14 days after application, rating scale 0-100 (0 no damage, 100 complete death)
Excerpt: as §1, §2, §4, §3

[30] = system: wheat (Triticum aestivum); assay: Pre-emerge test, crop damage wheat; settings: pre-emerge, 250 g ai/ha, 14 days after application, rating scale 0-100 (0 no damage, 100 complete death)
Excerpt: as §1, §2, §3

| Compound | Pre-emerge Herbicidal Activity ECC (phytotoxicity rating) [1] | Pre-emerge Herbicidal Activity SEV (phytotoxicity rating) [2] | Pre-emerge Herbicidal Activity ABT (phytotoxicity rating) [3] | Post-emerge crop damage SOY (phytotoxicity rating) [4] | Pre-emerge Herbicidal Activity AML (phytotoxicity rating) [5] | Post-emerge Herbicidal Activity AML (phytotoxicity rating) [6] | Post-emerge crop damage WHEAT (phytotoxicity rating) [7] | Post-emerge Herbicidal Activity IPH (phytotoxicity rating) [8] | Pre-emerge Herbicidal Activity CHA (phytotoxicity rating) [9] | Post-emerge Herbicidal Activity ECC (phytotoxicity rating) [10] | Pre-emerge Herbicidal Activity XAS (phytotoxicity rating) [11] | Post-emerge crop damage RICE (phytotoxicity rating) [12] | Post-emerge Herbicidal Activity ABT (phytotoxicity rating) [13] | Post-emerge Herbicidal Activity XAS (phytotoxicity rating) [14] | Pre-emerge crop damage CORN (phytotoxicity rating) [15] | Post-emerge Herbicidal Activity SOH (phytotoxicity rating) [16] | Post-emerge Herbicidal Activity DIS (phytotoxicity rating) [17] | Post-emerge Herbicidal Activity SEV (phytotoxicity rating) [18] | Post-emerge Herbicidal Activity CHA (phytotoxicity rating) [19] | Pre-emerge Herbicidal Activity AMR (phytotoxicity rating) [20] | also measured |
| --- | --- | --- | --- | --- | --- | --- | --- | --- | --- | --- | --- | --- | --- | --- | --- | --- | --- | --- | --- | --- | --- |
| O=C1Nc2c(-c3ncc(C(F)(F)F)cc3Cl)c(F)cc3c2N(C(=O)CO3)C1c1ccccc1 (stereo not drawn) [1-68] | 98 | 100 | 99 | 10 | 65 | 40 | 0 | 60 | 100 | 0 | 30 | 0 | 80 | 60 | 5 | 0 | 0 | 0 | 100 | 100 | Pre-emerge Herbicidal Activity IPH (phytotoxicity rating) [21]: 40; Post-emerge Herbicidal Activity CAO (phytotoxicity rating) [22]: 0; Post-emerge crop damage CORN (phytotoxicity rating) [23]: 10; Pre-emerge Herbicidal Activity DIS (phytotoxicity rating) [24]: 100; Pre-emerge Herbicidal Activity CAO (phytotoxicity rating) [25]: 40; Pre-emerge Herbicidal Activity SOH (phytotoxicity rating) [26]: 99; Pre-emerge crop damage RICE (phytotoxicity rating) [27]: 0; Pre-emerge crop damage SOY (phytotoxicity rating) [28]: 5; Post-emerge Herbicidal Activity AMR (phytotoxicity rating) [29]: 100; Pre-emerge crop damage WHEAT (phytotoxicity rating) [30]: 30 |
| C[C@@H]1Oc2cc(F)c(-c3nn(C)c(C(F)(F)F)c3Cl)c3c2N(CC(=O)N3)C1=O [1-49, 8-[4-Chloro-1-methyl-5-(trifluoromethyl)-1H-pyrazol-3-yl]-9-fluoro-2-S-methyl-5H-pyrazino[1,2,3-de]-1,4-benzoxazine-3,6(2H, 7H)-dione] | 100 | 100 | 100 | 80 | 100 | 80 | 50 | 100 | 100 | 100 | 85 | 85 | 100 | 100 | 70 | 65 | 99 | 100 | 100 | 100 | Pre-emerge Herbicidal Activity IPH (phytotoxicity rating) [21]: 100; Post-emerge Herbicidal Activity CAO (phytotoxicity rating) [22]: 100; Post-emerge crop damage CORN (phytotoxicity rating) [23]: 35; Pre-emerge Herbicidal Activity DIS (phytotoxicity rating) [24]: 100; Pre-emerge Herbicidal Activity CAO (phytotoxicity rating) [25]: 100; Pre-emerge Herbicidal Activity SOH (phytotoxicity rating) [26]: 100; Pre-emerge crop damage RICE (phytotoxicity rating) [27]: 70; Pre-emerge crop damage SOY (phytotoxicity rating) [28]: 50; Post-emerge Herbicidal Activity AMR (phytotoxicity rating) [29]: 100; Pre-emerge crop damage WHEAT (phytotoxicity rating) [30]: 60 |
| Cn1nc(-c2c(F)cc3c4c2NC(=O)C(c2ccccc2)N4C(=O)CO3)c(Cl)c1OC(F)F (stereo not drawn) [1-33] | 55 | 99 | 100 | 60 | 100 | 70 | 65 | 98 | 100 | 65 | 75 | 95 | 100 | 70 | 0 | 65 | 25 | 95 | 99 | 100 | Pre-emerge Herbicidal Activity IPH (phytotoxicity rating) [21]: 70; Post-emerge Herbicidal Activity CAO (phytotoxicity rating) [22]: 60; Post-emerge crop damage CORN (phytotoxicity rating) [23]: 25; Pre-emerge Herbicidal Activity DIS (phytotoxicity rating) [24]: 100; Pre-emerge Herbicidal Activity CAO (phytotoxicity rating) [25]: 65; Pre-emerge Herbicidal Activity SOH (phytotoxicity rating) [26]: 70; Pre-emerge crop damage RICE (phytotoxicity rating) [27]: 10; Pre-emerge crop damage SOY (phytotoxicity rating) [28]: 15; Post-emerge Herbicidal Activity AMR (phytotoxicity rating) [29]: 99; Pre-emerge crop damage WHEAT (phytotoxicity rating) [30]: 10 |
